Tested on: patients with HIV-associated KS

## Cn1cnc2c(F)c(Nc3ccc(Br)cc3Cl)c(C(=O)NOCCO)cc21 [selumetinib, 6-(4-Bromo-2-chloro-phenylamino)-7-fluro-3-methyl-3 H-benzoimidazole-5-carboxylic acid (2-hydroxy-ethoxy)-amide hydrogen sulphate]
N = patients, any dose
  Blood and lymphatic system disorders: Adverse Events Grade3 N: 0
  Blood and lymphatic system disorders: Adverse Reactions Grade 1 N: 3
  Blood and lymphatic system disorders: Adverse Reactions Grade 2 N: 1
  Blood and lymphatic system disorders: Adverse Reactions Grade 3 N: 0
  Cardiac disorders: Adverse Events Grade 1 N: 1
  Cardiac disorders: Adverse Events Grade 2 N: 0
  Cardiac disorders: Adverse Events Grade3 N: 0
  Cardiac disorders: Adverse Reactions Grade 1 N: 0
  Cardiac disorders: Adverse Reactions Grade 2 N: 0
  Cardiac disorders: Adverse Reactions Grade 3 N: 0
  Eye disorders: Adverse Events Grade 1 N: 6
  Eye disorders: Adverse Events Grade 2 N: 3
  Eye disorders: Adverse Events Grade3 N: 0
  Eye disorders: Adverse Reactions Grade 1 N: 5
  Eye disorders: Adverse Reactions Grade 2 N: 3
  Eye disorders: Adverse Reactions Grade 3 N: 0
  Gastrointestinal disorders: Adverse Events Grade 1 N: 12
  Gastrointestinal disorders: Adverse Events Grade 2 N: 7
  Gastrointestinal disorders: Adverse Events Grade3 N: 0
  Gastrointestinal disorders: Adverse Reactions Grade 1 N: 12
  Gastrointestinal disorders: Adverse Reactions Grade 2 N: 6
  Gastrointestinal disorders: Adverse Reactions Grade 3 N: 0
  General disorders and administration site conditions: Adverse Events Grade 1 N: 11
  General disorders and administration site conditions: Adverse Events Grade 2 N: 5
  General disorders and administration site conditions: Adverse Events Grade3 N: 1
  General disorders and administration site conditions: Adverse Reactions Grade 1 N: 10
  General disorders and administration site conditions: Adverse Reactions Grade 2 N: 2
  General disorders and administration site conditions: Adverse Reactions Grade 3 N: 0
  Infections and infestations: Adverse Events Grade 1 N: 2
  Infections and infestations: Adverse Events Grade 2 N: 4
  Infections and infestations: Adverse Events Grade3 N: 0
  Infections and infestations: Adverse Reactions Grade 1 N: 1
  Infections and infestations: Adverse Reactions Grade 2 N: 3
  Infections and infestations: Adverse Reactions Grade 3 N: 0
  Injury, poisoning and procedural complications: Adverse Events Grade 1 N: 2
  Injury, poisoning and procedural complications: Adverse Events Grade 2 N: 1
  Injury, poisoning and procedural complications: Adverse Events Grade3 N: 0
  Injury, poisoning and procedural complications: Adverse Reactions Grade 1 N: 0
  Injury, poisoning and procedural complications: Adverse Reactions Grade 2 N: 0
  Injury, poisoning and procedural complications: Adverse Reactions Grade 3 N: 0
  Investigations: Adverse Events Grade 1 N: 15
  Investigations: Adverse Events Grade 2 N: 4
  Investigations: Adverse Events Grade3 N: 2
  Investigations: Adverse Reactions Grade 1 N: 14
  Investigations: Adverse Reactions Grade 2 N: 3
  Investigations: Adverse Reactions Grade 3 N: 0
  Metabolism and nutrition disorders: Adverse Events Grade 1 N: 5
  Metabolism and nutrition disorders: Adverse Events Grade 2 N: 0
  Metabolism and nutrition disorders: Adverse Events Grade3 N: 0
  Metabolism and nutrition disorders: Adverse Reactions Grade 1 N: 5
  Metabolism and nutrition disorders: Adverse Reactions Grade 2 N: 0
  Metabolism and nutrition disorders: Adverse Reactions Grade 3 N: 0
  Musculoskeletal and connective tissue disorders: Adverse Events Grade 1 N: 4
  Musculoskeletal and connective tissue disorders: Adverse Events Grade 2 N: 0
  Musculoskeletal and connective tissue disorders: Adverse Events Grade3 N: 0
  Musculoskeletal and connective tissue disorders: Adverse Reactions Grade 1 N: 2
  Musculoskeletal and connective tissue disorders: Adverse Reactions Grade 2 N: 0
  Musculoskeletal and connective tissue disorders: Adverse Reactions Grade 3 N: 0
  Nervous system disorders: Adverse Events Grade 1 N: 4
  Nervous system disorders: Adverse Events Grade 2 N: 0
  Nervous system disorders: Adverse Events Grade3 N: 0
  Nervous system disorders: Adverse Reactions Grade 1 N: 4
  Nervous system disorders: Adverse Reactions Grade 2 N: 0
  Nervous system disorders: Adverse Reactions Grade 3 N: 0
  Psychiatric disorders: Adverse Events Grade 1 N: 3
  Psychiatric disorders: Adverse Events Grade 2 N: 0
  Psychiatric disorders: Adverse Events Grade3 N: 0
  Psychiatric disorders: Adverse Reactions Grade 1 N: 3
  Psychiatric disorders: Adverse Reactions Grade 2 N: 0
  Psychiatric disorders: Adverse Reactions Grade 3 N: 0
  Renal and urinary disorders: Adverse Events Grade 1 N: 2
  Renal and urinary disorders: Adverse Events Grade 2 N: 0
  Renal and urinary disorders: Adverse Events Grade3 N: 0
  Renal and urinary disorders: Adverse Reactions Grade 1 N: 1
  Renal and urinary disorders: Adverse Reactions Grade 2 N: 0
  Renal and urinary disorders: Adverse Reactions Grade 3 N: 0
  Respiratory, thoracic and mediastinal disorders: Adverse Events Grade 1 N: 4
  Respiratory, thoracic and mediastinal disorders: Adverse Events Grade 2 N: 1
  Respiratory, thoracic and mediastinal disorders: Adverse Events Grade3 N: 0
  Respiratory, thoracic and mediastinal disorders: Adverse Reactions Grade 1 N: 4
  Respiratory, thoracic and mediastinal disorders: Adverse Reactions Grade 2 N: 1
  Respiratory, thoracic and mediastinal disorders: Adverse Reactions Grade 3 N: 0
  Skin and subcutaneous tissue disorders: Adverse Events Grade 1 N: 10
  Skin and subcutaneous tissue disorders: Adverse Events Grade 2 N: 9
  Skin and subcutaneous tissue disorders: Adverse Events Grade3 N: 3
  Skin and subcutaneous tissue disorders: Adverse Reactions Grade 1 N: 10
  Skin and subcutaneous tissue disorders: Adverse Reactions Grade 2 N: 9
  Skin and subcutaneous tissue disorders: Adverse Reactions Grade 3 N: 3
  Vascular disorders: Adverse Events Grade 1 N: 2
  Vascular disorders: Adverse Events Grade 2 N: 0
  Vascular disorders: Adverse Events Grade3 N: 0
  Vascular disorders: Adverse Reactions Grade 1 N: 0
  Vascular disorders: Adverse Reactions Grade 2 N: 0
  Vascular disorders: Adverse Reactions Grade 3 N: 0
human, in vivo
  further AEs reported: 366
N (%) of 16 patients
  ALT Increased: Number of patients experiencing at least one grade <2AE: 5 (31%)
  AST Increased: Number of patients experiencing at least one grade <2AE: 7 (44%)
  Albumin Decreased: Number of patients experiencing at least one grade <2AE: 3 (19%)
  CPK Increased: Number of patients experiencing at least one grade <2AE: 9 (56%)
  Fatigue: Number of patients experiencing at least one grade <2AE: 9 (56%)
  Nausea: Number of patients experiencing at least one grade <2AE: 7 (44%)
  Red Blood Cell Count Decreased: Number of patients experiencing at least one grade <2AE: 7 (44%)
  Vomiting: Number of patients experiencing at least one grade <2AE: 3 (19%)
number
  serious adverse event (SAE), unrelated to study treatment: one
  serious adverse reactions (SARs): two
Number of events
  AEs graded 1 or 2: 360
Number of events, in five separate patients
  grade 3 AEs (non-serious): six
Of the further 366 AEs
  AEs categorised as grade 1 or 2: 98%
  AEs deemed as ARs: 69%
